For 18 molecules, IC50 results are on record in patent publication US20210363152A1, “AMINOAZINE AMIDES” (Hoffmann-La Roche Inc., priority 2018, published 2021).

SMILES strings stand for the structures.

The test concerns the target T1, Autotaxin enzyme (ATX) (Homo sapiens, UniProt Q13822).
T1 construct: purchased Echelon Biosciences, Inc. E-4000
Kind of test: In vitro ATX assay (enzymatic ATX inhibition, LPC 14:0 substrate, choline oxidase/HRP absorbance readout). Type of test: biochemical. Particulars: 0.3 mM LPC 14:0, 37° C., 4 hours, absorbance 555 nm. The method, boiled down:
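Human ATX (10 ng/mL as added) in pH 9.0 Tris buffer with NaCl, MgCl2, CoCl2 and Triton X-100 was preincubated with compound for 15 min at 37 °C. LPC 14:0 (0.3 mM final) was then hydrolysed for 4 h at 37 °C. Released choline was detected by choline oxidase/HRP with 4-AAP/TOOS, read after 15 min RT as absorbance at 555 nm, giving banded IC50 values.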
The molecule `O=C(c1cnc(NC2Cc3ccc(Cl)cc3C2)nc1)N1CCC12CCCOC2` (stereo not drawn) [Example 48] registered an IC50 below 100 nM. Molecule `O=C(c1cnc(NCc2cc(Cl)cc(Cl)c2)nc1)N1CCC12COC2` [Example 50] displayed a half-inhibitory concentration (IC50) of 100 to 1000 nM. Then `O=C(c1cnc(NCc2cc(OC(F)(F)F)cc(C3CC3)c2)nc1)N1CC2(COC2)C1` [Example 82, (2-((3-cyclopropyl-5-(trifluoromethoxy)benzyl)ami-no)pyrimidin-5-yl)(2-oxa-6-azaspiro[3.3]heptan-6-yl)methanone], with 100 to 1000 nM; and `O=C(c1cnc(NCc2cc(Br)cc(OC(F)(F)F)c2)nc1)N1CCC12COC2` [Example 25], with below 100 nM; and `O=C(c1cnc(NCc2cc(OCC3CC3)cc(OC(F)(F)F)c2)nc1)N1CCC12COC2` [Example 27], with below 100 nM.

As for `CC(C)Oc1cc(CNc2ncc(C(=O)N3CCC3C(C)(C)O)cn2)cc(C2CC2)c1` (stereo not drawn) [Example 59], the IC50 was below 100 nM.

Turning to `O=C(c1cnc(NCc2cc(OC(F)(F)F)cc(C3CC3)c2)nc1)N1CC2(CCS2(=O)=O)C1` [Example 102, (2-((3-cyclopropyl-5-(trifluoromethoxy)benzyl)ami-no)pyrimidin-5-yl)(1,1-dioxido-1-thia-6-azaspiro[3.3]heptan-6-y)methanone], the IC50 is 100 to 1000 nM. Then `CC(C)(O)C1CCN1C(=O)c1cnc(NC2Cc3ccc(Cl)cc3C2)nc1` (stereo not drawn) [Example 60], with below 100 nM; and `O=C(c1cnc(NC2Cc3ccc(Br)cc3C2)nc1)N1CCC12COC2` (stereo not drawn) [Example 43], with below 100 nM; and `Cc1cc2c(cc1C)CC(Nc1ncc(C(=O)N3CCC34COC4)cn1)C2` [Example 128, (2-((5,6-Dimethyl-2,3-dihydro-1H-inden-2-yl)amino)pyrimidin-5-yl)(6-oxa-1-azaspiro[3.3]heptan-1-yl)methanone], with at least 1000 nM.

In the case of `O=C(c1cnc(NCc2cccc(S(F)(F)(F)(F)F)c2)nc1)N1CCC12COC2` [Example 24], the IC50 was in the range of 100 to 1000 nM.

Molecule `CC(C)(O)[C@H]1CCN1C(=O)c1cnc(N[C@@H]2Cc3ccc(Cl)cc3C2)nc1` [Example 136, (2-(((R)-5-Chloro-2,3-dihydro-1H-inden-2-yl)amino)pyrimidin-5-yl) ((R)-2-(2-hydroxypropan-2-yl)azetidin-1-yl)methanone] returned an IC50 below 100 nM. Then `CCc1ccc2c(c1)CC(Nc1ncc(C(=O)N3CCC34COC4)cn1)C2` (stereo not drawn) [Example 126, (2-((5-Ethyl-2,3-dihydro-1H-inden-2-yl)amino)pyrimidin-5-yl) (6-oxa-1-azaspiro[3.3]heptan-1-yl)methanone], with 100 to 1000 nM; and `CN(C)C1CN(C(=O)c2cnc(NCc3cc(OC(F)(F)F)cc(C4CC4)c3)nc2)C1` [Example 110, (2-((3-cyclopropyl-5-(trifluoromethoxy)benzyl)ami-no)pyrimidin-5-yl)(3-(dimethylamino)azetidin-1-yl)methanone], with 100 to 1000 nM; and `CC(C)(O)C1CCN1C(=O)c1cnc(NCc2cc(OC(F)(F)F)cc(N3CCC3)c2)nc1` (stereo not drawn) [Example 68], with below 100 nM. Next, `O=C(c1cnc(NCc2cccc(C(F)F)c2)nc1)N1CCC12COC2` [Example 18]: at least 1000 nM; `CC(C)c1cc(CNc2ncc(C(=O)N3CCCC3)cn2)cc(OC(F)(F)F)c1` [Example 21]: below 100 nM; `CC(=O)N1CC2(CCN2C(=O)c2cnc(NCc3cc(OC(F)(F)F)cc(C4CC4)c3)nc2)C1` [Example 153, 1-(1-(2-((3-Cyclopropyl-5-(trifluoromethoxy)benzyl)amino)pyrimidine-5-carbonyl)-1,6-diazaspiro[3.3]heptan-6-yl)ethanone]: below 100 nM.
